Patent US20230165831A1, “METHOD AND COMPOSITION FOR RENDERING CANCER CELLS SUSCEPTIBLE TO TREATMENT BY TARGETED ONCOGENETIC DRIVERS” (IMPACT BIOLIFE SCIENCE, INC., priority 2021, published 2023)
Read-outs that look alike come from different tables or passages of the source.

Legend:
[1] = test system: lung adenocarcinoma line A549 cells; assay: CTG (CellTiter-Glo) cell viability assay, 6×6 combo matrix, 72 h, A549; settings: for Relatively Cell inhibition of vehicle control(%): A549;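 on all read-outs here: luminescent ATP readout with CellTiter-Glo after compound exposure, used to assess growth inhibition and combination synergy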
Protocol: (§1) 7) Using complete cell medium, adjust the volume of the suspension to achieve a cell concentration.
(§2) Solid compound of cis-platinum was solubilized in PBS to a stock solution of 3.333 mM.
(§3) Final volume is 100 µL per well at this point.
(§4) 1) Incubate the plates at room temperature and away from light for 30 minutes.
(§5) 3) Add 100 µL /well of CellTiter-Glo® Reagent in each well. Avoid light.
(§6) 4) Mix contents for 2 minutes on an orbital shaker.
(§7) 5) Incubate plate at room temperature for 10 minutes to stabilize the luminescent signal.

[2] = test system: pancreatic cancer line Capan-1 cells; assay: CTG (CellTiter-Glo) cell viability assay, 6×6 combo matrix, 72 h, Capan-1; format: cell-based; settings: for Relatively Cell inhibition of vehicle control(%): Capan-1
Protocol: To measure the cell inhibition effect of compounds and synergy effect of test articles on ten (10) cell lines using standard CTG assay.
b. A549, T47D, SK-OV-3, MKN45, SK-Hep-1, HT-29, Capan-1, 786-O and LNCaP cell line, for compounds and vehicle groups, the seeding density of cell lines is 3000 cells/80 µL per well. For blank groups, add 100 µL medium. For PBS groups, add 100 µL PBS.
8) Incubate the U87MG, A549, T47D, SK-OV-3, MKN45, SK-Hep-1, HT-29, Capan-1, 786-O and LNCaP cells overnight at 37° C./5% CO2.
5) Incubate the plates at 37° C./5% CO2 for 72 hours.
6) Read plates in Envision.

[3] = test system: ovarian cancer line SK-OV3 cells; assay: CTG (CellTiter-Glo) cell viability assay, 6×6 combo matrix, 72 h, SK-OV-3; settings: SK-OV-3;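 further: luminescent signal read after CellTiter-Glo addition, cells exposed to compounds for 72 h at 37 °C under 5% CO2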
Protocol: as §1, §2, §3, §4, §5, §6, §7

[4] = test system: colorectal cancer line HT29 cells; assay: CTG (CellTiter-Glo) cell viability assay, 6×6 combo matrix, 72 h, HT29; settings: HT29;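 further: cells exposed to compounds for 72 hours at 37 °C under 5% CO2, then viability read as luminescence after adding CellTiter-Glo Reagent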
Protocol: as §1, §2, §3, §4, §5, §6, §7

[5] = test system: Liver cancer line SK-HEP-1 cells; assay: CTG (CellTiter-Glo) cell viability assay, 6×6 combo matrix, 72 h, SK-Hep-1; settings: Homo sapiens;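 further: luminescent signal read after 72 h compound exposure at 37 °C under 5% CO2, with medium-only wells serving as blank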
Protocol: as §1, §2, §3, §4, §5, §6, §7

[6] = Homo sapiens, A549, read-out: Relatively Cell inhibition of vehicle control(%)
[7] = Homo sapiens, CAPAN-1, read-out: inhibition rate
[8] = Myr 0.8 µM only (cisplatin matrix)
[9] = Myr 0.8 µM only (doxorubicin matrix)
[10] = Myr 0.8 µM only (topotecan matrix)
[11] = Myr 4 µM only (cisplatin matrix)
[12] = Myr 20 µM only (cisplatin matrix)
[13] = Myr 100 µM only (cisplatin matrix)

## O=c1c(O)c(-c2cc(O)c(O)c(O)c2)oc2cc(O)cc(O)c12 [myricetin]
[1]; [6]
  inhibition at 0.8 µM: -3.15%
  inhibition at 4 µM: 0.85%
  inhibition at 20 µM: 7.42%
  inhibition at 100 µM: 40.3%
[1]; Myr 0.8 µM only (taxol matrix)
  Relatively Cell inhibition of vehicle control(%): -0.98%
[1]; Myr 4 µM only (taxol matrix)
  Relatively Cell inhibition of vehicle control(%): 3.22%
[1]; Myr 20 µM only (taxol matrix)
  Relatively Cell inhibition of vehicle control(%): 9.01%
[1]; Myr 100 µM only (taxol matrix)
  Relatively Cell inhibition of vehicle control(%): 41.11%
[2]; [7]
  inhibition at 4 µM: 6.24%
  inhibition at 100 µM: 23.3%
[2]; Myr 4 pM only (topotecan matrix)
  Relatively Cell inhibition of vehicle control(%): 0.67%
[2]; Myr 20 pM only (doxorubicin matrix)
  Relatively Cell inhibition of vehicle control(%): 11.98%
[2]; Myr 20 pM only (topotecan matrix)
  Relatively Cell inhibition of vehicle control(%): 5.10%
[2]; Myr 100 pM only (doxorubicin matrix)
  Relatively Cell inhibition of vehicle control(%): 30.94%
[2]; [8]
  Relatively Cell inhibition of vehicle control(%): 1.28%
[2]; [9]
  Relatively Cell inhibition of vehicle control(%): 7.91%
[2]; Myr 0.8 µM only (taxol matrix)
  Relatively Cell inhibition of vehicle control(%): 3.71%
[2]; [10]
  Relatively Cell inhibition of vehicle control(%): -6.16%
[2]; [11]
  Relatively Cell inhibition of vehicle control(%): 6.73%
[2]; Myr 4 µM only (taxol matrix)
  Relatively Cell inhibition of vehicle control(%): 7.41%
[2]; [12]
  Relatively Cell inhibition of vehicle control(%): 10.48%
[2]; Myr 20 µM only (taxol matrix)
  Relatively Cell inhibition of vehicle control(%): 9.11%
[2]; [13]
  Relatively Cell inhibition of vehicle control(%): 31.40%
[2]; Myr 100 µM only (taxol matrix)
  Relatively Cell inhibition of vehicle control(%): 30.66%
[3]; [8]
  Relatively Cell inhibition of vehicle control(%): 2.08%
[3]; [9]
  Relatively Cell inhibition of vehicle control(%): 0.36%
[3]; Myr 0.8 µM only (taxol matrix)
  Relatively Cell inhibition of vehicle control(%): 0.71%
[3]; [10]
  Relatively Cell inhibition of vehicle control(%): 4.27%
[3]; [11]
  Relatively Cell inhibition of vehicle control(%): 2.94%
[3]; Myr 4 µM only (doxorubicin matrix)
  Relatively Cell inhibition of vehicle control(%): 1.70%
[3]; Myr 4 µM only (taxol matrix)
  Relatively Cell inhibition of vehicle control(%): 0.87%
[3]; Myr 4 µM only (topotecan matrix)
  Relatively Cell inhibition of vehicle control(%): 3.31%
[3]; [12]
  Relatively Cell inhibition of vehicle control(%): 9.41%
[3]; Myr 20 µM only (doxorubicin matrix)
  Relatively Cell inhibition of vehicle control(%): 1.89%
[3]; Myr 20 µM only (taxol matrix)
  Relatively Cell inhibition of vehicle control(%): 7.54%
[3]; Myr 20 µM only (topotecan matrix)
  Relatively Cell inhibition of vehicle control(%): 0.29%
[3]; [13]
  Relatively Cell inhibition of vehicle control(%): 89.47%
[3]; Myr 100 µM only (doxorubicin matrix)
  Relatively Cell inhibition of vehicle control(%): 91.33%
[3]; Myr 100 µM only (taxol matrix)
  Relatively Cell inhibition of vehicle control(%): 87.91%
[3]; Myr 100 µM only (topotecan matrix)
  Relatively Cell inhibition of vehicle control(%): 87.18%
[4]; Myr 0.8 µM only (Cis 0)
  Relatively Cell inhibition of vehicle control(%): 3.87%
[4]; Myr 0.8 µM only (Dox 0)
  Relatively Cell inhibition of vehicle control(%): -1.09%
[4]; Myr 0.8 µM only (Tax 0)
  Relatively Cell inhibition of vehicle control(%): -1.36%
[4]; Myr 0.8 µM only (Top 0)
  Relatively Cell inhibition of vehicle control(%): -0.48%
[4]; Myr 4 µM only (Cis 0)
  Relatively Cell inhibition of vehicle control(%): 6.56%
[4]; Myr 4 µM only (Dox 0)
  Relatively Cell inhibition of vehicle control(%): -0.67%
[4]; Myr 4 µM only (Tax 0)
  Relatively Cell inhibition of vehicle control(%): 0.80%
[4]; Myr 4 µM only (Top 0)
  Relatively Cell inhibition of vehicle control(%): 3.33%
[4]; Myr 20 µM only (Cis 0)
  Relatively Cell inhibition of vehicle control(%): 24.55%
[4]; Myr 20 µM only (Dox 0)
  Relatively Cell inhibition of vehicle control(%): 23.37%
[4]; Myr 20 µM only (Tax 0)
  Relatively Cell inhibition of vehicle control(%): 32.84%
[4]; Myr 20 µM only (Top 0)
  Relatively Cell inhibition of vehicle control(%): 24.77%
[4]; Myr 100 µM only (Cis 0)
  Relatively Cell inhibition of vehicle control(%): 90.42%
[4]; Myr 100 µM only (Dox 0)
  Relatively Cell inhibition of vehicle control(%): 74.39%
[4]; Myr 100 µM only (Tax 0)
  Relatively Cell inhibition of vehicle control(%): 88.39%
[4]; Myr 100 µM only (Top 0)
  Relatively Cell inhibition of vehicle control(%): 87.04%
[5]; SK-HEP1, read-out: Relatively Cell inhibition of vehicle control, myricetin 0.8 µM only (cisplatin table)
  inhibition at 0.8 µM: -11.5%
[5]; SK-HEP1, read-out: Relatively Cell inhibition of vehicle control, myricetin 0.8 µM only (doxorubicin table)
  inhibition at 0.8 µM: -9.74%
[5]; SK-HEP1, read-out: Relatively Cell inhibition of vehicle control, myricetin 0.8 µM only (taxol table)
  inhibition at 0.8 µM: -6.66%
[5]; SK-HEP1, read-out: Relatively Cell inhibition of vehicle control, myricetin 0.8 µM only (topotecan table)
  inhibition at 0.8 µM: -19.3%
[5]; SK-HEP1, read-out: Relatively Cell inhibition of vehicle control, myricetin 4 µM only (cisplatin table)
  inhibition at 4 µM: 20.2%
[5]; SK-HEP1, read-out: Relatively Cell inhibition of vehicle control, myricetin 4 µM only (doxorubicin table)
  inhibition at 4 µM: 32.3%
[5]; SK-HEP1, read-out: Relatively Cell inhibition of vehicle control, myricetin 4 µM only (taxol table)
  inhibition at 4 µM: 22.8%
[5]; SK-HEP1, read-out: Relatively Cell inhibition of vehicle control, myricetin 4 µM only (topotecan table)
  inhibition at 4 µM: 16.8%
[5]; SK-HEP1, read-out: Relatively Cell inhibition of vehicle control, myricetin 20 µM only (cisplatin table)
  inhibition at 20 µM: 92.4%
[5]; SK-HEP1, read-out: Relatively Cell inhibition of vehicle control, myricetin 20 µM only (doxorubicin table)
  inhibition at 20 µM: 93.5%
[5]; SK-HEP1, read-out: Relatively Cell inhibition of vehicle control, myricetin 20 µM only (taxol table)
  inhibition at 20 µM: 92.8%
[5]; SK-HEP1, read-out: Relatively Cell inhibition of vehicle control, myricetin 20 µM only (topotecan table)
  inhibition at 20 µM: 93.2%
